Experimental data reported in patent publication US10065988B2, “Peptoid affinity ligands” (Stefano Menegatti, priority 2013, dated 2018).
*1 amine or outer side, *2 acyl side, *3 side chain or, on linkers, in order; H or OH if unused. Where a SMILES comes first, the peptide text is derived from it. [ ]: non-standard residue; d: D form. Gly(N(CH2)2(3-indolyl)) = O=C(O)CNCCc1c[nH]c2ccccc12; Gly(N-(CH2)3-guanidino) = N=C(N)NCCCNCC(=O)O; X1 = O=C(CN(CCc1ncc[nH]1)[*:1])[*:2]; Gly(N(CH2)3NH2) = NCCCNCC(=O)O; N(iPr)Gly = CC(C)NCC(=O)O

test system: human IgG (hIgG); test: Batch mode IgG binding to peptoid-functionalized Toyopearl AF-amino 650 M resin; conditions: polyclonal hIgG 0.5 mg/mL in PBS, 2 mg hIgG per mL resin, 45 min at 22° C., elution 0.1 M glycine pH 2.5, ELISA and SDS-PAGE (FIG. 1, FIG. 2)
From the text: FIG. 1. Batch mode IgG adsorption to Toyopearl AF-amino 650 M resins functionalized with different peptoid ligands. IgG in the flow-through fractions (black) indicate the percent hIgG that was not adsorbed to the resin relative to the mass of hIgG loaded. The elution fractions (grey) indicate the percent of human IgG that was bound in phosphate buffered saline (PBS) and eluted (0.1 M glycine, pH 2.5) relative to the initial concentration of IgG that was loaded. Concentrations of hIgG in all fractions were determined by ELISA. The unmodified resin served as the negative control. Binding trials were done in duplicate for each resin.
FIG. 2. Reducing SDS-PAGE analysis of elution and flow-through fractions from hIgG adsorption experiments. Lanes designated “FT” and “Elute” are the flow-through and elution fractions, respectively. The lane marked “hIgG loaded” is the pre-adsorbed hIgG solution that was incubated with each resin tested. The heavy and light chains of hIgG migrate at ˜55 and ˜25 kDa, respectively, on reducing SDS-PAGE gels.
IgG Binding to Resin: The ability of the peptoid affinity ligands to bind human IgG (hIgG) was tested in batch mode. A 50% slurry of the resin was prepared, of which 200 μl (˜100 mg resin) was transferred into the spin column. The resin was throughly washed with dH2O and equilibrated with PBS prior to hIgG exposure. Polyclonal hIgG (Equitech-Bio) was diluted to 0.5 mg/mL with PBS. After equilibration, a 0.5 mg/mL solution of hIgG was added to the resin to achieve a ratio of 2 mg hIgG per mL of resin, and allowed to incubate for 45 min at 22° C. with vigorous shaking. After incubation, the resin was centrifuged at 500×g for 2 min in which the filtrate of this step was collected and labeled as “flow-through” fraction. The resin was subsequently washed 2× with PBS. Elution buffer (0.1 M glycine, pH 2.5) was added to the resin and mixed vigorously for 10 min at 22° C. After centrifugation (500×g for 2 min) bound hIgG was eluted from the resin and collected in the filtrate. The amount of hIgG found in the flow-through and elution fraction was determined using an ELISA-based quantitative assay (Bethyl, Cat. No. E80-104). hIgG yields were determined as the ratio of hIgG mass in the elution fraction and hIgG mass in the loading solution (FIG. 1). SDS-PAGE analysis of all collected fractions was carried out to determine product purity and evaluate the ligand selectivity (FIG. 2).

Compound | ability of the peptoid affinity ligands to bind human IgG (hIgG) to the resin
N=C(N)NCCCN(CC(=O)NCC(=O)O)C(=O)CN(CCc1c[nH]c2ccccc12)C(=O)CNCCc1ncc[nH]1 [Ligand G003] | useful for binding IgG to the resin
CC(C)N(CC(=O)O)C(=O)CN(CCc1c[nH]c2ccccc12)C(=O)CNC(=O)CN(CCCNC(=N)N)C(=O)CN(CCc1c[nH]c2ccccc12)C(=O)CNCCc1ncc[nH]1 [Ligand G001] (H-[X1][Gly(N(CH2)2(3-indolyl))][Gly(N-(CH2)3-guanidino)]G[Gly(N(CH2)2(3-indolyl))][N(iPr)Gly]-OH) | useful for binding IgG to the resin
N=C(N)NCCCN(CC(=O)O)C(=O)CN(CCc1c[nH]c2ccccc12)C(=O)CNCCc1ncc[nH]1 [Ligand G005] | useful for binding IgG to the resin
CC(C)N(CC(=O)O)C(=O)CN(CCc1c[nH]c2ccccc12)C(=O)CNC(=O)CN(CCCN)C(=O)CN(CCc1c[nH]c2ccccc12)C(=O)CNCCc1ncc[nH]1 [Ligand G012] (H-[X1][Gly(N(CH2)2(3-indolyl))][Gly(N(CH2)3NH2)]G[Gly(N(CH2)2(3-indolyl))][N(iPr)Gly]-OH) | useful for binding IgG to the resin
